# Data from patent US7534421B2, “s-Triazine compounds bearing at least one para-aminobenzalmalonic salt substituent and photoprotective cosmetic compositions comprised thereof” (L'Oreal, priority 2003, dated 2009).
# Counter-ions that a name gives are not always drawn.
# Test: UV absorption spectrum (λmax, εmax, E1%) of the s-triazine UV screens in solution
# Type: physicochemical
E1% (UV (water)),εmax (UV (water)),λmax (UV (water)),Structure (SMILES),further results
E1% = 523,εmax = 83 250,λmax = 322 nm,"O=C(O)C(=Cc1ccc(Nc2nc(Nc3ccc(C=C(C(=O)O)C(=O)O)cc3)nc(Nc3ccc(C=C(C(=O)O)C(=O)O)cc3)n2)cc1)C(=O)O [Example 4, hexatriethanolamine salt of 2-(4-{4,6-bis[4-(2,2-dicarboxyvinyl)phenylamino][1,3,5]triazin-2-ylamino}benzylidene)malonic acid]",–
E1% = 963,εmax = 69 210,λmax = 329 nm,"CC12CCC(/C(=C\c3ccc(Nc4nc(Nc5ccc(C=C(C(=O)O)C(=O)O)cc5)nc(Nc5ccc(C=C(C(=O)O)C(=O)O)cc5)n4)cc3)C1=O)C2(C)C (stereo not drawn) [Example 10, tetrasodium salt of 2-(4-{4-[4-(2-dicarboxyvinyl)phenylamino]-6-[4-(4,7,7-trimethyl-3-oxobicyclo[2.2.1]hept-2-ylidenemethyl)phenylamino][1,3,5]triazin-2-ylamino}benzylidene)malonic acid]",–
E1% = 1 043,εmax = 86 428,λmax = 323 nm,"O=C(O)C(=Cc1ccc(Nc2nc(Nc3ccc(C=C(C(=O)O)C(=O)O)cc3)nc(Nc3ccc(C=C(C(=O)O)C(=O)O)cc3)n2)cc1)C(=O)O [Example 1, hexasodium salt of 2-(4-{4,6-bis[4-(2,2-dicarboxyvinyl)phenylamino][1,3,5]triazin-2-ylamino}benzylidene)malonic acid]",–
E1% = 768,εmax = 45 900,λmax = 318 nm,"COc1ccc(-c2nc(Nc3ccc(C=C(C(=O)O)C(=O)O)cc3)nc(Nc3ccc(C=C(C(=O)O)C(=O)O)cc3)n2)cc1 [Example 6, tetrasodium salt of 2-{4-[4-[4-(2,2-dicarboxyvinyl)phenylamino]-6-(4-methoxyphenyl)[1,3,5]triazin-2-ylamino]benzylidene}malonic acid]",–
–,–,–,"O=C(O)C(=Cc1ccc(Nc2nc(O)nc(Nc3ccc(C=C(C(=O)O)C(=O)O)cc3)n2)cc1)C(=O)O [2-(4-{4-[4-(2,2-dicarboxyvinyl)phenylamino]-6-hydroxy[1,3,5]triazin-2-ylamino}benzylidene)malonic acid]",E1% (UV (DMSO/ethanol)): E1% = 691; εmax (UV (DMSO/ethanol)): εmax = 35 070; λmax (UV (DMSO/ethanol)): λmax = 336 nm
E1% = 1 274,εmax = 83 070,λmax = 327 nm,"O=C(O)/C=C/c1ccc(Nc2nc(Nc3ccc(C=C(C(=O)O)C(=O)O)cc3)nc(Nc3ccc(C=C(C(=O)O)C(=O)O)cc3)n2)cc1 [Example 9, pentasodium salt of 2-(4-{4-[4-(2-carboxyvinyl)phenylamino]-6-[4-(2,2-dicarboxy-vinyl)phenylamino][1,3,5]triazin-2-ylamino}benzylidene)malonic acid]",–
–,–,–,"O=C(O)C(=Cc1ccc(Nc2nc(O)nc(Nc3ccc(C=C(C(=O)O)C(=O)O)cc3)n2)cc1)C(=O)O [Example 5, tetrasodium salt of 2-(4-{4-[4-(2,2-dicarboxyvinyl)phenylamino]-6-hydroxy[1,3,5]triazin-2-ylamino}benzylidene)malonic acid]",E1% (UV (NaOH 0.1 N)): E1% = 852; εmax (UV (NaOH 0.1 N)): εmax = 50 700; λmax (UV (NaOH 0.1 N)): λmax = 322 nm
–,–,–,"O=C(O)C(=Cc1ccc(Nc2nc(Cl)nc(Nc3ccc(C=C(C(=O)O)C(=O)O)cc3)n2)cc1)C(=O)O [2-(4-{4-chloro-6-[4-(2,2-dicarboxy-vinyl)phenylamino][1,3,5]triazin-2-ylamino}benzylidene)malonic acid]",E1% (UV (NaOH 0.1 N)): E1% = 932; εmax (UV (NaOH 0.1 N)): εmax = 64 960; λmax (UV (NaOH 0.1 N)): λmax = 320 nm
E1% = 1 060,εmax = 87 820,λmax = 323 nm,"O=C(O)C(=Cc1ccc(Nc2nc(Nc3ccc(C=C(C(=O)O)C(=O)O)cc3)nc(Nc3ccc(C=C(C(=O)O)C(=O)O)cc3)n2)cc1)C(=O)O [Example 2, hexasodium salt of 2-(4-{4,6-bis[4-(2,2-dicarboxyvinyl)phenylamino][1,3,5]triazin-2-ylamino}benzylidene)malonic acid]",–
–,–,–,"O=C(O)C(=Cc1ccc(Nc2nc(Nc3ccc(C=C(C(=O)O)C(=O)O)cc3)nc(Nc3ccc(C=C(C(=O)O)C(=O)O)cc3)n2)cc1)C(=O)O [acid derivative of Example 1, 2-(4-[4,6-bis[4-(2,2-dicarboxyvinyl)phenylamino][1,3,5]triazin-2-ylamino}benzylidene)malonic acid]",E1% (UV (ethanol)): E1% = 930; εmax (UV (ethanol)): εmax = 64 820; λmax (UV (ethanol)): λmax = 348 nm
E1% = 720,εmax = 66 600,λmax = 324 nm,"O=C(O)C(=Cc1ccc(Nc2nc(Nc3ccc(C=C(C(=O)O)C(=O)O)cc3)nc(Nc3ccc(C=C(C(=O)O)C(=O)O)cc3)n2)cc1)C(=O)O [Example 3, hexapotassium salt of 2-(4-{4,6-bis[4-(2,2-dicarboxyvinyl)phenylamino][1,3,5]triazin-2-ylamino}benzylidene)malonic acid]",–
E1% = 1 238,εmax = 98 170,λmax = 353 nm,"CC12CCC(/C(=C\c3ccc(Nc4nc(Nc5ccc(C=C(C(=O)O)C(=O)O)cc5)nc(Nc5ccc(/C=C6/C(=O)C7(C)CCC6C7(C)C)cc5)n4)cc3)C1=O)C2(C)C [Example 11, disodium salt of 2-(4-{[4,6-bis({4-(4,7,7-trimethyl-3-oxobicyclo[2.2.1]hept-2-ylidene)methyl]phenyl}amino)[1,3,5]triazin-2-ylamino}benzylidene)malonic acid]",–

Structure (SMILES),E1% (UV (water)),εmax (UV (water)),λmax (UV (water)),further results
"CCCCOc1nc(Nc2ccc(C=C(C(=O)O)C(=O)O)cc2)nc(Nc2ccc(C=C(C(=O)O)C(=O)O)cc2)n1 [Example 7, tetrasodium salt of 2-(4-{4-butoxy-6-[4-(2,2-dicarboxyvinyl)phenylamino][1,3,5]triazin-2-ylamino}benzylidene)malonic acid]",E1% = 922,εmax = 51 960,λmax = 317 nm,–
